This is an account of results in PMC10150365 (Journal of Medicinal Chemistry, 2023).

Data set [1] in a line: physchem. Particulars: pH 7.4.
The nature of data set [2]: in vitro. Type of data set: in vitro ADME, mouse. Particulars: male, CD1, mouse, microsomes, pH 7.4; n = 1, fraction unbound assumed 1; read-out: Microsome Clint, mouse (MLM).
Data set [3] can be described thus: physchem. The settings on record: pH 7.4. This is another data set of the same source.
Data set [4] deals with SK-OV-3. The experiment in a line: cells. Format: cell-based, human.
Data set [5] can be described thus: in vitro. Format: in vitro ADME. The settings on record: male, Sprague Dawley, rat, microsomes, pH 7.4; n = 1, fraction unbound assumed 1; read-out: Microsome Clint, rat (RLM).
Data set [6] can be described thus: in vitro. Particulars: both sexes, human, microsomes, pH 7.4; n = 1, fraction unbound assumed 1; read-out: Microsome Clint, human (HLM). Format: in vitro ADME.
Data set [7] is described as follows: iv PK in CF1 wild-type and P-gp-knockout mice. Format: in vivo, mouse. Particulars: mouse, whole blood, iv, 5 mg/kg, read-out: Vss.
In data set [8] the test system is P-gp. In words: iv PK in CF1 wild-type and P-gp-knockout mice. Format: in vivo, mouse. Particulars: 5 mg/kg iv, 90% CI.
Data set [9] can be described thus: Mouse blood PK (BALB/c). Particulars: for iv Cltb / Free Cav^0–24h / CLu / Vdu / AUC / Fmax: BALB/c mice; for iv Cltb: iv 5 mg/kg (18: 1 mg/kg); for Free Cav^0–24h: AUC^inf/24*fub; for CLu: CLtb/fub; for Vdu: Vss/fub; for Vd / half-life at 24 h: iv.
A short description of data set [10]: Plasma protein binding and blood-to-plasma ratio. The settings on record: for fub: BALB/c mouse blood, fub = fup/B:P; for Plasma, fup: BALB/c mouse, 90% CI.
Data set [11] can be described thus: Free fraction in CellTiter-Blue assay medium (dialysis). Format: in vitro ADME. Particulars: dialysis from CellTiter-Blue assay medium; 90% CI.
Data set [12] can be described thus: in vitro. Format: in vitro ADME. The settings on record: mouse; for hepatocyte CLint at 1 h, 1 µM: hepatocytes, n = 1, read-out: Mouse Heps CLint; for Pred. in vivo CLu from Heps: fraction unbound in assay assumed 0.4 or 0.2.
The conditions of data set [13]: for FaSSGF Concentration, replicates 1-3: pH 1.6, individual replicates; for FaSSIF Concentration, replicates 1-3 / FeSSIF Concentration, replicates 1-3: pH 6.5, individual replicates.
Data set [14] can be described thus: physchem.
Where [15] appears, read: Homo sapiens, SK-OV-3, 96 h; read-out: SK-OV-3 pGI50 ± SEM (n) (converted).
The mark [16] stands for this setting: Homo sapiens, SK-OV-3; 96 h, CellTiter-Blue, geometric mean; read-out: SK-OV-3 GI50.
[17] abbreviates: female, BALB/c, mouse, in vivo, po, 5 mg/kg.
The mark [18] stands for this setting: female, BALB/c, mouse, in vivo, po, 5 mg/kg, AUCu^0–6h, AUC*fub.
Setting [19] is: female, BALB/c, mouse, in vivo, po, 5 mg/kg, po AUC^0–6h, po 5 mg/kg, 90% CI.
The mark [20] stands for this setting: female, BALB/c, mouse, whole blood, po, 5 mg/kg.
Where [21] appears, read: pH 1.6, Thermodynamic solubility FaSSGF (mean), pH 1.6, 37 °C, 1 mg/mL (top limit of assay).
Where [22] appears, read: pH 6.5, Thermodynamic solubility FaSSIF (mean), pH 6.5, 37 °C, 1 mg/mL.

≈ marks a conversion by molar mass, not a printed value. Where “and” joins values, the source holds several entries; their conditions need not be identical. Equal values may be shown once. Read-outs that look alike come from different tables or passages of the source. Marks after values point to notes of the source that are not given here.

For the compound `Cc1ccc(NC(=O)c2ccc3c(c2)OCCO3)cc1NC(=O)c1ccc2nc(CN3CCCC3)ccc2c1` [Compound 11, N-(5-(2,3-Dihydrobenzo[b][1,4]dioxine-6-carboxamido)-2-methylphenyl)-2-(pyrrolidin-1-ylmethyl)quinoline-6-carboxamide], the kinetic solubility at 2 h, 100 µM in [1] is 40 µM (≈ 20.9 µg/mL). Further, the microsomal CLint in data set [2] was 21 µL/min/mg. Besides, the chromatographic logD in data set [3] was 1.9. Besides, the GI50 is 6.17 nM in [4] (setting [15]) and 6.2 nM in data set [4] (setting [16]). The microsomal CLint at 0.75 h, 1 µM in data set [5] was 20 µL/min/mg; in data set [6] it was 23 µL/min/mg.

Regarding `Cc1ccc(NC(=O)c2ccc3c(c2)OCCO3)cc1NC(=O)c1ccc2nc(CN3CCN(C)CC3)ccc2c1` [Compound 15, N-(5-(2,3-Dihydrobenzo[b][1,4]dioxine-6-carboxamido)-2-methylphenyl)-2-((4-methylpiperazin-1-yl)methyl)quinoline-6-carboxamide], the solubility (kinetic) at 2 h, 100 µM in data set [1] was determined as 80 µM (≈ 44.1 µg/mL). Besides, the results for the microsomal CLint in [2], in [5] and in [6] were 21 µL/min/mg, 33 µL/min/mg and 33 µL/min/mg, respectively. Also, in [3], the chromatographic logD was determined as 1.6. The GI50 in [4] (setting [15]) is 9.55 nM; in data set [4] (setting [16]) it was 9.5 nM.

`Cc1ccc(NC(=O)c2ccc3c(c2)OCCO3)cc1NC(=O)c1ccc2nc(OCCN3CCCCC3)ccc2c1` [Compound 17, N-(5-(2,3-Dihydrobenzo[b][1,4]dioxine-6-carboxamido)-2-methylphenyl)-2-(2-(piperidin-1-yl)ethoxy)quinoline-6-carboxamide]: the Vd worked out at 3.6 L/kg in data set [7] (CF1 mdr1a P-gp deficient (CF1-Abcb1amds), CF1^PGP-KO mice); 4.7 L/kg in data set [7] (CF1 wild type, CF1^WT mice); 5.1 L/kg in [9] (female, BALB/c, mouse, whole blood). Further, the Cltb in data set [8] (CF1^PGP-KO mice) is on record as 38 (43-37) mL/min/kg; in data set [8] (CF1^WT mice), 47 (62-35) mL/min/kg. Also, the “iv Cltb” value in data set [9] (90% CI) is 40 (48–32) mL/min/kg. In addition, in data set [9] (po), the “Free Cav^0–24h” value stood at 0.83 nM. Also, the CLu in data set [9] came to 2700 mL/min/kg. In [9], this compound came in with a Vdu of 340 L/kg. For the same compound, the Tmax at 24 h in [9] (setting [17]) was found to be 2.3 h. This compound also yielded a bioavailability at 24 h in [9] (setting [17]) of 24%. In addition, the AUC in [9] (setting [18]) worked out at 0.012 µM·h; in data set [9] (setting [19]), 0.83 µM·h. The same compound came in with a Cmax in data set [9] (setting [20]) of 180 nM. In data set [9] (setting [20]), the Tmax was 2 h. For the same compound, the GI50 in [4] (Homo sapiens, SK-OV-3, 96 h, read-out: SK-OV-3 GI50) was 1.1 nM; in [4] (Homo sapiens, SK-OV-3, 96 h, read-out: SK-OV-3 pGI50 ± SEM (n) (converted)), 1.07 nM. In data set [10], the fub is given as 0.015. For the same compound, the “Plasma, fup” value in [10] was 0.022 (0.027-0.017).

Compound `CC(C)N1CCN(Cc2ccc3cc(C(=O)Nc4cc(NC(=O)c5ccc6c(c5)OCCO6)ccc4Cl)ccc3n2)CC1` [Compound 18, N-(2-Chloro-5-(2,3-dihydrobenzo[b][1,4]dioxine-6-carboxamido)phenyl)-2-((4-isopropylpiperazin-1-yl)methyl)quinoline-6-carboxamide] had a kinetic solubility at 2 h, 100 µM in data set [1] of 70 µM (≈ 42 µg/mL). In addition, in data set [11], the “Assay medium, fua” value was 0.16 (0.18-0.15). In data set [9], the Fmax came to 63%, the CLu worked out at 3000 mL/min/kg and the Vdu is reported as 450 L/kg. Moreover, the “iv Cltb” value in data set [9] (90% CI) is 33 (35–31) mL/min/kg. Further, in data set [9] (po), the “Free Cav^0–24h” value is 1.6 nM. The same compound came in with a Vd in data set [9] (female, BALB/c, mouse, in vivo) of 4.9 L/kg. The half-life at 24 h in [9] (female, BALB/c, mouse, in vivo, 1 mg/kg) is 2 h. In data set [9] (setting [17]), the peak level (Cmax) was 550 nM, the Tmax at 24 h is 1.7 h and the bioavailability at 24 h came out at 63%. Also, the area under the curve (AUC) in data set [9] (setting [18]) stood at 0.026 µM·h. In [9] (setting [19]), this compound came in with an area under the curve (AUC) of 2.4 µM·h. In [3], the chromatographic logD came out at 2.3. The GI50 in data set [4] (setting [15]) was 14.8 nM. The GI50 in data set [4] (setting [16]) came out at 15 nM. Moreover, in data set [10], the fub was found to be 0.011 and the “Plasma, fup” value is reported as 0.012 (0.014-0.010). Further, in data set [12], the hepatocyte CLint at 1 h, 1 µM was found to be 28 µL/min/1e6 cells and the “Pred. in vivo CLu from Heps” value is on record as 930 ^i mL/min/kg.

Turning to `CCN1CCN(Cc2ccc3cc(C(=O)Nc4cc(NC(=O)c5ccc6c(c5)OCCO6)ccc4Cl)ccc3n2)CC1` [Compound 21, N-(2-Chloro-5-(2,3-dihydrobenzo[b][1,4]dioxine-6-carboxamido)phenyl)-2-((4-ethylpiperazin-1-yl)methyl)quinoline-6-carboxamide], the kinetic solubility at 2 h, 100 µM in data set [1] was 50 µM (≈ 29.3 µg/mL). The “Assay medium, fua” value in [11] is 0.15 (0.15-0.14). In data set [9], the Fmax worked out at 69%, the CLu is on record as 5300 mL/min/kg and the Vdu worked out at 1100 L/kg. Besides, the “Free Cav^0–24h” value in data set [9] (po) is on record as 1.3 nM. In data set [9] (female, BALB/c, mouse, in vivo), this compound showed a bioavailability of 100% and a Vd of 5.7 L/kg. Moreover, in data set [9] (female, BALB/c, mouse, in vivo, 5 mg/kg), the half-life at 24 h was 2.3 h. In [9] (setting [17]), the Cmax was found to be 880 nM, the Tmax at 24 h worked out at 1.7 h and the bioavailability is 96%. In addition, the AUC in [9] (setting [18]) was 0.02 µM·h. The same compound came in with an AUC in [9] (setting [19]) of 3.9 µM·h. For the same compound, the chromatographic logD in [3] was determined as 2.2. In data set [4] (setting [15]), the GI50 is 11 nM. Also, in data set [4] (setting [16]), the GI50 was found to be 11 nM. Moreover, in data set [10], the fub is listed as 0.0053 and the “Plasma, fup” value is on record as 0.013 (0.015-0.011). In data set [12], the hepatocyte CLint at 1 h, 1 µM amounted to 71 µL/min/1e6 cells and the “Pred. in vivo CLu from Heps” value is on record as 1400 ^i mL/min/kg.

For the compound `O=c1[nH]c2ccccc2n1C1CCN(CCCC(c2ccc(F)cc2)c2ccc(F)cc2)CC1` [Pimozide], in data set [13], the “FaSSGF Concentration, replicates 1-3” value is 0.087 mg/mL and 0.092 mg/mL and 0.090 mg/mL; the “FaSSIF Concentration, replicates 1-3” value was 0.004 mg/mL and 0.003 mg/mL; the “FeSSIF Concentration, replicates 1-3” value was 0.018 mg/mL and 0.008 mg/mL and 0.007 mg/mL. Besides, the thermodynamic solubility in data set [14] (setting [21]) was found to be 90 µg/mL (≈ 195 µM). In [14] (setting [22]), the solubility (thermodynamic) turned out to be 4 µg/mL (≈ 8.67 µM).

As to `CC(C)NCC(O)COc1cccc2ccccc12` (stereo not shown) [Propranolol], in data set [13], the “FaSSGF Concentration, replicates 1-3” value was 1.246 mg/mL and 1.094 mg/mL and 1.002 mg/mL; the “FaSSIF Concentration, replicates 1-3” value is 0.853 mg/mL and 1.047 mg/mL and 0.931 mg/mL; the “FeSSIF Concentration, replicates 1-3” value was 1.669 mg/mL and 1.812 mg/mL and 1.465 mg/mL. The solubility (thermodynamic) in data set [14] (setting [21]) was 1110 µg/mL (≈ 4300 µM). Besides, the thermodynamic solubility in [14] (setting [22]) amounted to 944 µg/mL (≈ 3640 µM).

As usually defined, the kinetic solubility is solubility judged after dilution from a stock solution rather than from solid. What is called chromatographic logD is a lipophilicity value derived from retention on a column. By Tmax is commonly meant the time from dosing to the highest level. A word on the bioavailability: it is the share of a dose that reaches the circulation, judged against a reference dose that is usually intravenous. As usually defined, the AUC is concentration integrated over time. A high value points to high exposure. What is called Cmax is the maximum level reached in the sampled fluid or tissue. Broadly, the half-life is how long it takes for the measured level to halve. Broadly, the solubility (thermodynamic) is the concentration in solution at equilibrium with solid.
